According to ChEMBL document CHEMBL1629667, “Activities of dalbavancin against a worldwide collection of 81,673 gram-positive bacterial isolates” (2009):
≈ marks a conversion by molar mass, not a printed value.

Experiments:
Type in all cases: functional
Streptococcus [1] = test: Antimicrobial activity against viridans group Streptococcus assessed as percent resistant isolates by broth microdilution method
Streptococcus [2] = test: Antimicrobial activity against Beta-hemolytic Streptococcus by broth microdilution method
Streptococcus [3] = test: Antimicrobial activity against Beta-hemolytic Streptococcus assessed as percent susceptible isolate by broth microdilution method
Streptococcus [4] = test: Antimicrobial activity against viridans group Streptococcus by broth microdilution method
Streptococcus [5] = test: Antimicrobial activity against viridans group Streptococcus assessed as percent susceptible isolate by broth microdilution method
Enterococcus faecalis [6] = test: Antimicrobial activity against Vancomycin-susceptible Enterococcus faecalis assessed as percent resistant isolates by broth microdilution method
Enterococcus faecalis [7] = test: Antimicrobial activity against Vancomycin-susceptible Enterococcus faecalis assessed as percent susceptible isolate by broth microdilution method
Enterococcus faecalis [8] = test: Antimicrobial activity against Vancomycin-nonsusceptible Enterococcus faecalis assessed as percent susceptible isolate by broth microdilution method
Enterococcus faecium [9] = test: Antimicrobial activity against Vancomycin-nonsusceptible Enterococcus faecium by broth microdilution method
Enterococcus faecium [10] = test: Antimicrobial activity against Vancomycin-susceptible Enterococcus faecium by broth microdilution method
Enterococcus faecalis [11] = test: Antimicrobial activity against Vancomycin-nonsusceptible Enterococcus faecalis assessed as percent resistant isolates by broth microdilution method
Enterococcus faecium [12] = test: Antimicrobial activity against Vancomycin-nonsusceptible Enterococcus faecium assessed as percent susceptible isolate by broth microdilution method
Enterococcus faecalis [13] = test: Antimicrobial activity against Vancomycin-susceptible Enterococcus faecalis by broth microdilution method
Enterococcus faecalis [14] = test: Antimicrobial activity against Vancomycin-nonsusceptible Enterococcus faecalis by broth microdilution method
Enterococcus faecium [15] = test: Antimicrobial activity against Vancomycin-susceptible Enterococcus faecium assessed as percent susceptible isolate by broth microdilution method
Enterococcus faecium [16] = test: Antimicrobial activity against Vancomycin-susceptible Enterococcus faecium assessed as percent resistant isolates by broth microdilution method
Enterococcus faecium [17] = test: Antimicrobial activity against Vancomycin-nonsusceptible Enterococcus faecium assessed as percent resistant isolates by broth microdilution method
Staphylococcus [18] = test: Antimicrobial activity against Oxacillin-susceptible coagulase-negative Staphylococcus assessed as percent resistant isolate by broth microdilution method
Staphylococcus aureus [19] = test: Antimicrobial activity against Oxacillin-susceptible Staphylococcus aureus by broth microdilution method
Staphylococcus [20] = test: Antimicrobial activity against Oxacillin-resistant coagulase-negative Staphylococcus assessed as percent susceptible isolate by broth microdilution method
Staphylococcus aureus [21] = test: Antimicrobial activity against Oxacillin-resistant Staphylococcus aureus by broth microdilution method
Staphylococcus [22] = test: Antimicrobial activity against Oxacillin-susceptible coagulase-negative Staphylococcus by broth microdilution method
Staphylococcus aureus [23] = test: Antimicrobial activity against Oxacillin-susceptible Staphylococcus aureus assessed as percent susceptible isolate by broth microdilution method
Staphylococcus aureus [24] = test: Antimicrobial activity against Oxacillin-susceptible Staphylococcus aureus assessed as percent resistant isolates by broth microdilution method
Staphylococcus [25] = test: Antimicrobial activity against Oxacillin-resistant coagulase-negative Staphylococcus assessed as percent resistant isolate by broth microdilution method
Staphylococcus [26] = test: Antimicrobial activity against Oxacillin-susceptible coagulase-negative Staphylococcus assessed as percent susceptible isolate by broth microdilution method
Staphylococcus aureus [27] = test: Antimicrobial activity against Oxacillin-resistant Staphylococcus aureus assessed as percent susceptible isolate by broth microdilution method
Staphylococcus aureus [28] = test: Antimicrobial activity against Oxacillin-resistant Staphylococcus aureus assessed as percent resistant isolate by broth microdilution method
Staphylococcus [29] = test: Antimicrobial activity against Oxacillin-resistant coagulase-negative Staphylococcus by broth microdilution method

Row | Compound | MIC (Streptococcus [2]) [µg/mL] | MIC50 (Streptococcus [2]) [µg/mL] | MIC90 (Streptococcus [2]) [µg/mL] | Activity (Streptococcus [3]) [%] | MIC50 (Streptococcus [4]) [µg/mL] | MIC90 (Streptococcus [4]) [µg/mL] | Activity (Streptococcus [5]) [%] | Activity (Enterococcus faecalis [7]) [%] | Activity (Enterococcus faecalis [8]) [%] | Activity (Enterococcus faecium [12]) [%] | MIC50 (Enterococcus faecalis [13]) [µg/mL] | MIC90 (Enterococcus faecalis [13]) [µg/mL] | Activity (Enterococcus faecium [15]) [%] | MIC50 (Staphylococcus aureus [19]) [µg/mL] | MIC90 (Staphylococcus aureus [19]) [µg/mL] | Activity (Staphylococcus [20]) [%] | MIC50 (Staphylococcus [22]) [µg/mL] | MIC90 (Staphylococcus [22]) [µg/mL] | Activity (Staphylococcus aureus [23]) [%] | Activity (Staphylococcus [26]) [%] | further results
1 | CO/N=C(\C(=O)N[C@@H]1C(=O)N2C(C(=O)O)=C(CSc3nc(=O)c(O)nn3C)CS[C@H]12)c1csc(N)n1 [CEFTRIAXONE] | 0.25 (≈ 0.451 µM) | 0.25 (≈ 0.451 µM) | 0.25 (≈ 0.451 µM) | 99.9 | 0.25 (≈ 0.451 µM) | 1 (≈ 1.8 µM) | 92.5 |  |  |  |  |  |  |  |  |  |  |  |  |  | Activity (Streptococcus [1]): 4.3%; MIC (Streptococcus [4]): 0.25 µg/mL (≈ 0.451 µM)
2 | O=C(O)c1cn(C2CC2)c2cc(N3CCNCC3)c(F)cc2c1=O [CIPROFLOXACIN] |  |  |  |  |  |  |  | 62.2 | 3.7 | 0.7 | 1 (≈ 3.02 µM) | > 4 | 8.1 |  |  |  |  |  |  |  | Activity (Enterococcus faecalis [6]): 33.6%; MIC50 (Enterococcus faecium [9]): > 4 µg/mL; MIC90 (Enterococcus faecium [9]): > 4 µg/mL; MIC50 (Enterococcus faecium [10]): > 4 µg/mL; MIC90 (Enterococcus faecium [10]): > 4 µg/mL; Activity (Enterococcus faecalis [11]): 96.3%; MIC50 (Enterococcus faecalis [14]): > 4 µg/mL; MIC90 (Enterococcus faecalis [14]): > 4 µg/mL; Activity (Enterococcus faecium [16]): 83.7%
3 | CC1(C)S[C@@H]2[C@H](NC(=O)Cc3ccccc3)C(=O)N2[C@H]1C(=O)O [PENICILLIN G] | 0.015 (≈ 0.0449 µM) | 0.015 (≈ 0.0449 µM) | 0.06 (≈ 0.179 µM) | 99.9 | 0.06 (≈ 0.179 µM) | 1 (≈ 2.99 µM) | 71.7 |  |  |  |  |  |  |  |  |  |  |  |  |  | Activity (Streptococcus [1]): 6%
4 | CC1(C)S[C@@H]2[C@H](NC(=O)[C@H](N)c3ccccc3)C(=O)N2[C@H]1C(=O)O [AMPICILLIN] |  |  |  |  |  |  |  | 99.6 | 96 | 0.8 | ≤ 2 | ≤ 2 | 15.6 |  |  |  |  |  |  |  | Activity (Enterococcus faecium [17]): 99.2%; Activity (Enterococcus faecalis [6]): 0.2%; MIC50 (Enterococcus faecium [9]): > 16 µg/mL; MIC90 (Enterococcus faecium [9]): > 16 µg/mL; MIC50 (Enterococcus faecium [10]): > 16 µg/mL; MIC90 (Enterococcus faecium [10]): > 16 µg/mL; Activity (Enterococcus faecalis [11]): 4%; MIC (Enterococcus faecalis [13]): ≤ 2 µg/mL; MIC (Enterococcus faecalis [14]): ≤ 2 µg/mL; MIC50 (Enterococcus faecalis [14]): ≤ 2 µg/mL; MIC90 (Enterococcus faecalis [14]): 4 µg/mL (≈ 11.4 µM); Activity (Enterococcus faecium [16]): 84.4%
5 | CN(C)[C@@H]1C(O)=C(C(N)=O)C(=O)[C@@]2(O)C(O)=C3C(=O)c4c(O)cccc4[C@@](C)(O)[C@H]3C[C@@H]12 [TETRACYCLINE] |  |  |  |  |  |  |  |  |  |  |  |  |  | ≤ 4 | ≤ 4 | 83.4 | ≤ 4 | > 8 | 93.7 | 86.7 | Activity (Staphylococcus [18]): 12.6%; MIC (Staphylococcus aureus [19]): ≤ 4 µg/mL; MIC90 (Staphylococcus aureus [21]): > 8 µg/mL; MIC (Staphylococcus [22]): ≤ 4 µg/mL; Activity (Staphylococcus aureus [24]): 5.8%; Activity (Staphylococcus [25]): 15.8%; Activity (Staphylococcus aureus [27]): 81.1%; Activity (Staphylococcus aureus [28]): 18.4%
6 | CC[C@H]1OC(=O)[C@H](C)[C@@H](O[C@H]2C[C@@](C)(OC)[C@@H](O)[C@H](C)O2)[C@H](C)[C@@H](O[C@@H]2O[C@H](C)C[C@H](N(C)C)[C@H]2O)[C@](C)(O)C[C@@H](C)C(=O)[C@H](C)[C@@H](O)[C@]1(C)O [ERYTHROMYCIN] | 0.25 (≈ 0.341 µM) | 0.25 (≈ 0.341 µM) | 2 (≈ 2.73 µM) | 79.6 | 0.25 (≈ 0.341 µM) | 2 (≈ 2.73 µM) | 56 |  |  |  |  |  |  | ≤ 0.25 | > 2 | 24.1 | ≤ 0.25 | > 2 | 78.7 | 66 | Activity (Staphylococcus [18]): 33.6%; MIC (Staphylococcus aureus [19]): ≤ 0.25 µg/mL; MIC50 (Staphylococcus aureus [21]): > 2 µg/mL; MIC (Staphylococcus [22]): ≤ 0.25 µg/mL; Activity (Streptococcus [1]): 41.7%; Activity (Staphylococcus aureus [24]): 20.7%; Activity (Staphylococcus [25]): 75.4%; MIC (Streptococcus [4]): 0.25 µg/mL (≈ 0.341 µM); MIC50 (Staphylococcus [29]): > 2 µg/mL; Activity (Staphylococcus aureus [27]): 10.9%; Activity (Staphylococcus aureus [28]): 88.8%
7 | GENTAMICIN |  |  |  |  |  |  |  | 68.5 | 28.4 | 64.3 | < 500 | > 1000 | 61.8 | < 2 | < 2 | 50.7 | < 2 | < 2 | 97.1 | 95 | Activity (Enterococcus faecium [17]): 35.7%; Activity (Staphylococcus [18]): 3.1%; Activity (Enterococcus faecalis [6]): 31.5%; MIC50 (Staphylococcus aureus [21]): < 2 µg/mL; MIC90 (Staphylococcus aureus [21]): > 8 µg/mL; Activity (Staphylococcus aureus [24]): 2.6%; Activity (Staphylococcus [25]): 35.3%; Activity (Enterococcus faecalis [11]): 71.6%; MIC50 (Staphylococcus [29]): 4 µg/mL; MIC90 (Staphylococcus [29]): > 8 µg/mL; Activity (Staphylococcus aureus [27]): 74.1%; Activity (Staphylococcus aureus [28]): 24.8%; Activity (Enterococcus faecium [16]): 38.2%
8 | CN[C@H]1C(=O)N[C@@H]2Cc3ccc(cc3)Oc3cc4cc(c3O[C@@H]3O[C@H](C(=O)O)[C@@H](O)[C@H](O)[C@H]3NC(=O)CCCCCCCCC(C)C)Oc3ccc(cc3Cl)[C@@H](O)[C@@H]3NC(=O)[C@H](NC(=O)[C@@H]4NC(=O)[C@@H](NC2=O)c2cc(cc(O)c2Cl)Oc2cc1ccc2O)c1ccc(O)c(c1)-c1c(O[C@H]2O[C@H](CO)[C@@H](O)[C@H](O)[C@@H]2O)cc(O)cc1[C@@H](C(=O)NCCCN(C)C)NC3=O [DALBAVANCIN] | 0.03 (≈ 0.0165 µM) | 0.03 (≈ 0.0165 µM) | 0.03 (≈ 0.0165 µM) | 100 | 0.03 (≈ 0.0165 µM) | 0.03 (≈ 0.0165 µM) | 100 | >99.9 | 27.8 | 11.4 | ≤ 0.03 | 0.06 (≈ 0.033 µM) | 99.6 | 0.06 (≈ 0.033 µM) | 0.06 (≈ 0.033 µM) | 99.2 | ≤ 0.03 | 0.06 (≈ 0.033 µM) | 100 | 99.8 | MIC50 (Staphylococcus aureus [21]): 0.06 µg/mL (≈ 0.033 µM); MIC90 (Staphylococcus aureus [21]): 0.06 µg/mL (≈ 0.033 µM); MIC (Staphylococcus [22]): ≤ 0.03 µg/mL; MIC50 (Enterococcus faecium [9]): > 4 µg/mL; MIC90 (Enterococcus faecium [9]): > 4 µg/mL; MIC50 (Enterococcus faecium [10]): 0.06 µg/mL (≈ 0.033 µM); MIC90 (Enterococcus faecium [10]): 0.12 µg/mL (≈ 0.0661 µM); MIC (Streptococcus [4]): 0.03 µg/mL (≈ 0.0165 µM); MIC (Enterococcus faecalis [13]): ≤ 0.03 µg/mL; MIC90 (Staphylococcus [29]): 0.12 µg/mL (≈ 0.0661 µM); MIC50 (Enterococcus faecalis [14]): > 4 µg/mL; MIC90 (Enterococcus faecalis [14]): > 4 µg/mL
